Reference: PubChem BioAssay (NCI)
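Dose response: 5 concentrations. Exposure: 48 h. Format: 96-well plates. Endpoint: linear interpolation; highest concentration if not reached. At the TGI there is no net growth.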

What was measured:
Test in all cases: NCI tumour cell line growth inhibition, 48 h
COLO 205 colon = system: COLO 205 colon
SK-MEL-28 melanoma = system: SK-MEL-28 melanoma
OVCAR-4 ovarian = system: OVCAR-4 ovarian
NCI/ADR-RES ovarian = system: NCI/ADR-RES ovarian
MDA-N = system: MDA-N
ACHN renal = system: ACHN renal
DU-145 prostate = system: DU-145 prostate
HS 578T breast = system: HS 578T breast
OVCAR-5 ovarian = system: OVCAR-5 ovarian
CAKI-1 renal = system: CAKI-1 renal
MALME-3M melanoma = system: MALME-3M melanoma
CCRF-CEM leukemia = system: CCRF-CEM leukemia
HCC-2998 colon = system: HCC-2998 colon
K-562 leukemia = system: K-562 leukemia
HT29 colon = system: HT29 colon
OVCAR-3 ovarian = system: OVCAR-3 ovarian
MCF7 breast = system: MCF7 breast
SF-268 CNS = system: SF-268 CNS
UO-31 renal = system: UO-31 renal
HCT-116 colon = system: HCT-116 colon
SNB-75 CNS = system: SNB-75 CNS
SF-539 CNS = system: SF-539 CNS
UACC-257 melanoma = system: UACC-257 melanoma
MDA-MB-231 breast = system: MDA-MB-231 breast
HOP-92 NSCLC = system: HOP-92 NSCLC
HL-60(TB) leukemia = system: HL-60(TB) leukemia
TK-10 renal = system: TK-10 renal
RPMI-8226 leukemia = system: RPMI-8226 leukemia
A498 renal = system: A498 renal
BT-549 breast = system: BT-549 breast
SK-MEL-2 melanoma = system: SK-MEL-2 melanoma
786-0 renal = system: 786-0 renal
NCI-H460 lung = system: NCI-H460 lung
EKVX NSCLC = system: EKVX NSCLC
IGROV1 ovarian = system: IGROV1 ovarian
SN12C renal = system: SN12C renal
SF-295 CNS = system: SF-295 CNS
NCI-H522 lung = system: NCI-H522 lung
HCT-15 colon = system: HCT-15 colon
KM12 colon = system: KM12 colon
PC-3 prostate = system: PC-3 prostate
NCI-H23 lung = system: NCI-H23 lung
LOX IMVI melanoma = system: LOX IMVI melanoma
T-47D breast = system: T-47D breast
MDA-MB-435 = system: MDA-MB-435
SK-MEL-5 melanoma = system: SK-MEL-5 melanoma
A549 NSCLC = system: A549 NSCLC
M14 melanoma = system: M14 melanoma
U251 CNS = system: U251 CNS
RXF 393 renal = system: RXF 393 renal
MOLT-4 leukemia = system: MOLT-4 leukemia
UACC-62 melanoma = system: UACC-62 melanoma
SNB-19 CNS = system: SNB-19 CNS
OVCAR-8 ovarian = system: OVCAR-8 ovarian
HOP-62 NSCLC = system: HOP-62 NSCLC
SR leukemia = system: SR leukemia
SW-620 colon = system: SW-620 colon
NCI-H226 lung = system: NCI-H226 lung
SK-OV-3 ovarian = system: SK-OV-3 ovarian

In the case of `CC1=NN(C(=O)CC(=O)Nc2ccccc2)C(=O)C1N=Nc1ccc(C(=O)O)cc1` (stereo unspecified), the TGI (COLO 205 colon) is reported as greater than 100 µM, the TGI (SK-MEL-28 melanoma) is reported as greater than 100 µM and the TGI (OVCAR-4 ovarian) is reported as greater than 100 µM. The TGI (NCI/ADR-RES ovarian) was greater than 100 µM, the TGI (MDA-N) was greater than 100 µM and the TGI (ACHN renal) was greater than 100 µM. The TGI (DU-145 prostate) was greater than 100 µM, the TGI (HS 578T breast) was greater than 100 µM and the TGI (OVCAR-5 ovarian) was greater than 100 µM. It also gave a TGI (CAKI-1 renal) greater than 100 µM, a TGI (MALME-3M melanoma) greater than 100 µM and a TGI (CCRF-CEM leukemia) greater than 100 µM. It also gave a TGI (HCC-2998 colon) greater than 100 µM, a TGI (K-562 leukemia) greater than 100 µM and a TGI (HT29 colon) greater than 100 µM. The TGI (OVCAR-3 ovarian) was greater than 100 µM, the TGI (MCF7 breast) was greater than 100 µM and the TGI (SF-268 CNS) was greater than 100 µM. The TGI (UO-31 renal) was greater than 100 µM, the TGI (HCT-116 colon) was greater than 100 µM and the TGI (SNB-75 CNS) was greater than 100 µM. The TGI (SF-539 CNS) was greater than 100 µM, the TGI (UACC-257 melanoma) was greater than 100 µM and the TGI (MDA-MB-231 breast) was greater than 100 µM. The TGI (HOP-92 NSCLC) was 87.1 µM, the TGI (HL-60(TB) leukemia) was greater than 100 µM and the TGI (TK-10 renal) was greater than 100 µM. For the same molecule, the TGI (RPMI-8226 leukemia) was greater than 100 µM, the TGI (A498 renal) was greater than 100 µM and the TGI (BT-549 breast) was greater than 100 µM. For the same molecule, the TGI (SK-MEL-2 melanoma) was greater than 100 µM, the TGI (786-0 renal) was greater than 100 µM and the TGI (NCI-H460 lung) was greater than 100 µM. The TGI (EKVX NSCLC) was greater than 100 µM, the TGI (IGROV1 ovarian) was greater than 100 µM and the TGI (SN12C renal) was greater than 100 µM. The TGI (SF-295 CNS) was greater than 100 µM, the TGI (NCI-H522 lung) was greater than 100 µM and the TGI (HCT-15 colon) was greater than 100 µM. For the same molecule, the TGI (KM12 colon) was greater than 100 µM, the TGI (PC-3 prostate) was greater than 100 µM and the TGI (NCI-H23 lung) was greater than 100 µM. It also gave a TGI (LOX IMVI melanoma) greater than 100 µM, a TGI (T-47D breast) greater than 100 µM and a TGI (MDA-MB-435) greater than 100 µM. It also gave a TGI (SK-MEL-5 melanoma) greater than 100 µM, a TGI (A549 NSCLC) greater than 100 µM and a TGI (M14 melanoma) greater than 100 µM. It also gave a TGI (U251 CNS) greater than 100 µM, a TGI (RXF 393 renal) greater than 100 µM and a TGI (MOLT-4 leukemia) greater than 100 µM. For the same molecule, the TGI (UACC-62 melanoma) was greater than 100 µM, the TGI (SNB-19 CNS) was greater than 100 µM and the TGI (OVCAR-8 ovarian) was greater than 100 µM. The TGI (HOP-62 NSCLC) was greater than 100 µM, the TGI (SR leukemia) was greater than 100 µM and the TGI (SW-620 colon) was greater than 100 µM.
`O=C1CC2(CCC(O)(c3ccccc3)C(C(=O)c3ccccc3)C2)C(=O)c2ccccc2N1` (stereo unspecified) was tested, and the TGI (COLO 205 colon) was greater than 100 µM, the TGI (SK-MEL-28 melanoma) was greater than 100 µM and the TGI (OVCAR-4 ovarian) was greater than 100 µM. For the same molecule, the TGI (NCI/ADR-RES ovarian) was greater than 100 µM, the TGI (MDA-N) was greater than 100 µM and the TGI (DU-145 prostate) was greater than 100 µM. The TGI (HS 578T breast) was greater than 100 µM, the TGI (OVCAR-5 ovarian) was greater than 100 µM and the TGI (CAKI-1 renal) was greater than 100 µM. For the same molecule, the TGI (MALME-3M melanoma) was greater than 100 µM, the TGI (CCRF-CEM leukemia) was greater than 100 µM and the TGI (HCC-2998 colon) was greater than 100 µM. The TGI (K-562 leukemia) was greater than 100 µM, the TGI (HT29 colon) was greater than 100 µM and the TGI (OVCAR-3 ovarian) was greater than 100 µM. The TGI (MCF7 breast) was greater than 100 µM, the TGI (SF-268 CNS) was greater than 100 µM and the TGI (UO-31 renal) was greater than 100 µM. The TGI (HCT-116 colon) was greater than 100 µM, the TGI (SNB-75 CNS) was greater than 100 µM and the TGI (SF-539 CNS) was greater than 100 µM. For the same molecule, the TGI (UACC-257 melanoma) was greater than 100 µM, the TGI (MDA-MB-231 breast) was greater than 100 µM and the TGI (HOP-92 NSCLC) was greater than 100 µM. For the same molecule, the TGI (HL-60(TB) leukemia) was greater than 100 µM, the TGI (TK-10 renal) was greater than 100 µM and the TGI (NCI-H226 lung) was greater than 100 µM. The TGI (A498 renal) was greater than 100 µM, the TGI (BT-549 breast) was greater than 100 µM and the TGI (SK-MEL-2 melanoma) was greater than 100 µM. It also gave a TGI (NCI-H460 lung) greater than 100 µM, a TGI (EKVX NSCLC) greater than 100 µM and a TGI (IGROV1 ovarian) greater than 100 µM. It also gave a TGI (SN12C renal) greater than 100 µM, a TGI (SF-295 CNS) greater than 100 µM and a TGI (HCT-15 colon) greater than 100 µM. It also gave a TGI (PC-3 prostate) greater than 100 µM, a TGI (NCI-H23 lung) greater than 100 µM and a TGI (LOX IMVI melanoma) greater than 100 µM. It also gave a TGI (T-47D breast) greater than 100 µM, a TGI (MDA-MB-435) greater than 100 µM and a TGI (SK-MEL-5 melanoma) greater than 100 µM. It also gave a TGI (A549 NSCLC) greater than 100 µM, a TGI (M14 melanoma) greater than 100 µM and a TGI (U251 CNS) greater than 100 µM. It also gave a TGI (RXF 393 renal) greater than 100 µM, a TGI (MOLT-4 leukemia) greater than 100 µM and a TGI (UACC-62 melanoma) greater than 100 µM. The TGI (SNB-19 CNS) was greater than 100 µM, the TGI (OVCAR-8 ovarian) was greater than 100 µM and the TGI (SK-OV-3 ovarian) was greater than 100 µM. For the same molecule, the TGI (HOP-62 NSCLC) was greater than 100 µM, the TGI (SR leukemia) was greater than 100 µM and the TGI (SW-620 colon) was greater than 100 µM.
